Test results as given in PubChem BioAssay (NCI).
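Results reflect a 48-hour exposure of cells in 96-well plates to compound at five concentrations. Definition used: TGI = concentration required for complete inhibition of growth.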

Key:
Test in all cases: NCI tumour cell line growth inhibition, 48 h
786-0 renal = tested on: 786-0 renal
A498 renal = tested on: A498 renal
A549 NSCLC = tested on: A549 NSCLC
ACHN renal = tested on: ACHN renal
CAKI-1 renal = tested on: CAKI-1 renal
CCRF-CEM leukemia = tested on: CCRF-CEM leukemia
COLO 205 colon = tested on: COLO 205 colon
DLD-1 colon = tested on: DLD-1 colon
DMS 114 small cell lung = tested on: DMS 114 small cell lung
DMS 273 small cell lung = tested on: DMS 273 small cell lung
EKVX NSCLC = tested on: EKVX NSCLC
HCC-2998 colon = tested on: HCC-2998 colon
HCT-116 colon = tested on: HCT-116 colon
HCT-15 colon = tested on: HCT-15 colon
HL-60(TB) leukemia = tested on: HL-60(TB) leukemia
HOP-18 NSCLC = tested on: HOP-18 NSCLC
HOP-62 NSCLC = tested on: HOP-62 NSCLC
HOP-92 NSCLC = tested on: HOP-92 NSCLC
HT29 colon = tested on: HT29 colon
IGROV1 ovarian = tested on: IGROV1 ovarian
K-562 leukemia = tested on: K-562 leukemia
KM12 colon = tested on: KM12 colon
KM20L2 colon = tested on: KM20L2 colon
LOX IMVI melanoma = tested on: LOX IMVI melanoma
LXFL 529 NSCLC = tested on: LXFL 529 NSCLC
M14 melanoma = tested on: M14 melanoma
M19-MEL melanoma = tested on: M19-MEL melanoma
MALME-3M melanoma = tested on: MALME-3M melanoma
MOLT-4 leukemia = tested on: MOLT-4 leukemia
NCI-H226 lung = tested on: NCI-H226 lung
NCI-H23 lung = tested on: NCI-H23 lung
NCI-H460 lung = tested on: NCI-H460 lung
NCI-H522 lung = tested on: NCI-H522 lung
OVCAR-3 ovarian = tested on: OVCAR-3 ovarian
OVCAR-4 ovarian = tested on: OVCAR-4 ovarian
OVCAR-5 ovarian = tested on: OVCAR-5 ovarian
OVCAR-8 ovarian = tested on: OVCAR-8 ovarian
RPMI-8226 leukemia = tested on: RPMI-8226 leukemia
RXF 393 renal = tested on: RXF 393 renal
RXF-631 renal = tested on: RXF-631 renal
SF-268 CNS = tested on: SF-268 CNS
SF-295 CNS = tested on: SF-295 CNS
SF-539 CNS = tested on: SF-539 CNS
SK-MEL-2 melanoma = tested on: SK-MEL-2 melanoma
SK-MEL-28 melanoma = tested on: SK-MEL-28 melanoma
SK-MEL-5 melanoma = tested on: SK-MEL-5 melanoma
SK-OV-3 ovarian = tested on: SK-OV-3 ovarian
SN12C renal = tested on: SN12C renal
SNB-19 CNS = tested on: SNB-19 CNS
SNB-75 CNS = tested on: SNB-75 CNS
SNB-78 CNS = tested on: SNB-78 CNS
SR leukemia = tested on: SR leukemia
SW-620 colon = tested on: SW-620 colon
TK-10 renal = tested on: TK-10 renal
U251 CNS = tested on: U251 CNS
UACC-257 melanoma = tested on: UACC-257 melanoma
UACC-62 melanoma = tested on: UACC-62 melanoma
UO-31 renal = tested on: UO-31 renal
XF 498 CNS = tested on: XF 498 CNS

## O=C1CCC[C@]2(CCCC(=O)N2)C1
786-0 renal
  TGI: > 100 µM
A498 renal
  TGI: > 100 µM
A549 NSCLC
  TGI: > 100 µM
ACHN renal
  TGI: > 100 µM
CAKI-1 renal
  TGI: > 100 µM
CCRF-CEM leukemia
  TGI: > 100 µM
COLO 205 colon
  TGI: > 100 µM
DLD-1 colon
  TGI: > 100 µM
DMS 114 small cell lung
  TGI: > 100 µM
DMS 273 small cell lung
  TGI: > 100 µM
EKVX NSCLC
  TGI: > 100 µM
HCC-2998 colon
  TGI: > 100 µM
HCT-116 colon
  TGI: > 100 µM
HCT-15 colon
  TGI: > 100 µM
HL-60(TB) leukemia
  TGI: > 100 µM
HOP-18 NSCLC
  TGI: > 100 µM
HOP-62 NSCLC
  TGI: > 100 µM
HOP-92 NSCLC
  TGI: > 100 µM
HT29 colon
  TGI: > 100 µM
IGROV1 ovarian
  TGI: > 100 µM
K-562 leukemia
  TGI: > 100 µM
KM12 colon
  TGI: > 100 µM
KM20L2 colon
  TGI: > 100 µM
LOX IMVI melanoma
  TGI: > 100 µM
LXFL 529 NSCLC
  TGI: > 100 µM
M14 melanoma
  TGI: > 100 µM
M19-MEL melanoma
  TGI: > 100 µM
MALME-3M melanoma
  TGI: > 100 µM
MOLT-4 leukemia
  TGI: > 100 µM
NCI-H226 lung
  TGI: > 100 µM
NCI-H23 lung
  TGI: > 100 µM
NCI-H460 lung
  TGI: > 100 µM
NCI-H522 lung
  TGI: > 100 µM
OVCAR-3 ovarian
  TGI: > 100 µM
OVCAR-4 ovarian
  TGI: > 100 µM
OVCAR-5 ovarian
  TGI: > 100 µM
OVCAR-8 ovarian
  TGI: > 100 µM
RPMI-8226 leukemia
  TGI: > 100 µM
RXF 393 renal
  TGI: > 100 µM
RXF-631 renal
  TGI: > 100 µM
SF-268 CNS
  TGI: > 100 µM
SF-295 CNS
  TGI: > 100 µM
SF-539 CNS
  TGI: > 100 µM
SK-MEL-2 melanoma
  TGI: > 100 µM
SK-MEL-28 melanoma
  TGI: > 100 µM
SK-MEL-5 melanoma
  TGI: > 100 µM
SK-OV-3 ovarian
  TGI: > 100 µM
SN12C renal
  TGI: > 100 µM
SNB-19 CNS
  TGI: > 100 µM
SNB-75 CNS
  TGI: > 100 µM
SNB-78 CNS
  TGI: > 100 µM
SR leukemia
  TGI: > 100 µM
SW-620 colon
  TGI: > 100 µM
TK-10 renal
  TGI: > 100 µM
U251 CNS
  TGI: > 100 µM
UACC-257 melanoma
  TGI: > 100 µM
UACC-62 melanoma
  TGI: > 100 µM
UO-31 renal
  TGI: > 100 µM
XF 498 CNS
  TGI: > 100 µM

## O=C(O)CCC(=O)N1C/C(=C\c2ccccc2)C(=O)/C(=C/c2ccccc2)C1
786-0 renal
  TGI: 5.75 µM
A498 renal
  TGI: 27.3 µM
A549 NSCLC
  TGI: 34.5 µM
ACHN renal
  TGI: 4 µM
CAKI-1 renal
  TGI: 14.9 µM
CCRF-CEM leukemia
  TGI: 9.93 µM
COLO 205 colon
  TGI: 11.3 µM
DLD-1 colon
  TGI: 5.06 µM
DMS 114 small cell lung
  TGI: 4.73 µM
DMS 273 small cell lung
  TGI: 4.97 µM
EKVX NSCLC
  TGI: 15.9 µM
HCC-2998 colon
  TGI: 4.53 µM
HCT-116 colon
  TGI: 3.16 µM
HCT-15 colon
  TGI: 4.8 µM
HL-60(TB) leukemia
  TGI: 4.59 µM
HOP-18 NSCLC
  TGI: 16.1 µM
HOP-62 NSCLC
  TGI: 31.3 µM
HOP-92 NSCLC
  TGI: 30.8 µM
HT29 colon
  TGI: 4.65 µM
IGROV1 ovarian
  TGI: 12.7 µM
K-562 leukemia
  TGI: > 24.6 µM
KM12 colon
  TGI: 3.34 µM
KM20L2 colon
  TGI: 9.89 µM
LOX IMVI melanoma
  TGI: 3.36 µM
LXFL 529 NSCLC
  TGI: 7.17 µM
M14 melanoma
  TGI: 5.39 µM
M19-MEL melanoma
  TGI: 3.47 µM
MALME-3M melanoma
  TGI: 5.52 µM
MOLT-4 leukemia
  TGI: 8.22 µM
NCI-H226 lung
  TGI: 34.3 µM
NCI-H23 lung
  TGI: 12.7 µM
NCI-H460 lung
  TGI: 25.2 µM
NCI-H522 lung
  TGI: 3.38 µM
OVCAR-3 ovarian
  TGI: 5.93 µM
OVCAR-4 ovarian
  TGI: 4.86 µM
OVCAR-5 ovarian
  TGI: 28.3 µM
OVCAR-8 ovarian
  TGI: 8.24 µM
RPMI-8226 leukemia
  TGI: 19.9 µM
RXF 393 renal
  TGI: 12.7 µM
RXF-631 renal
  TGI: 11.2 µM
SF-268 CNS
  TGI: 5.5 µM
SF-295 CNS
  TGI: 6.03 µM
SF-539 CNS
  TGI: 3.85 µM
SK-MEL-2 melanoma
  TGI: 4 µM
SK-MEL-28 melanoma
  TGI: 3.55 µM
SK-MEL-5 melanoma
  TGI: 6.9 µM
SK-OV-3 ovarian
  TGI: 25.3 µM
SN12C renal
  TGI: 3.52 µM
SNB-19 CNS
  TGI: 13.8 µM
SNB-75 CNS
  TGI: 19.1 µM
SNB-78 CNS
  TGI: 31.4 µM
SR leukemia
  TGI: 3.96 µM
SW-620 colon
  TGI: 3.77 µM
TK-10 renal
  TGI: 21.2 µM
U251 CNS
  TGI: 3.29 µM
UACC-257 melanoma
  TGI: 6.53 µM
UACC-62 melanoma
  TGI: 2.63 µM
UO-31 renal
  TGI: 33 µM
XF 498 CNS
  TGI: 6.56 µM
